Consider 28 compounds from patent US6989263B1, “Method for identifying and using compounds that inactivate HIV-1 and other retroviruses by attacking highly conserved zinc fingers in the viral nucleocapsid protein” (The United States of America as represented by the …, priority 1994, dated 2006).

Entries after “also recorded” stand apart in the source; their conditions may differ.

The target in one experiment is T1, p7NC (Human immunodeficiency virus type 1 group M subtype B, UniProt P05888).
T1 construct: The NC protein of HIV-1 (MN) p7NC was expressed in E. coli; made in house; host or cells: E. coli (vector pMAL-c)
Briefly: HPLC analysis of reaction products of purified p7NC with reagent. Type of experiment: biochemical, HIV-1. More on the design: key to Protein (HPLC): reaction products / Protein (HPLC): reaction rate: formation of non-native, intra-protein disulfide links (designated “Disulfides”); some of the reagents form adducts with the cysteine residues as well (designated “Adducts”); slow: “Slow” reactions are those in which greater than 10% of the p7NC protein remained in its native form after the 10 minute incubation with reagent; very slow: “Very slow” reactions are those in which greater than 50% of the p7NC protein remained in its native form after the 10 minute incubation with reagent; fast: “Fast” reactions result in complete transformation of the p7NC protein to non-native conformations during the 10 minute incubation period.
Details: not given
An excerpt: Highly purified retroviral NC proteins can be produced by expression from vectors generated through recombinant DNA technology. These proteins when reconstituted with zinc (see, Summers, et al., Protein Science 1:563–567 (1992) for methods), provide the source of the NC proteins containing the zinc fingers that are the targets for attack by the compounds of this invention. When the zinc fingers in NC proteins react with identified compounds, the reaction produces a covalent change in the NC protein, and the modified protein can be separated from the unreacted protein by, for example, reversed phase HPLC.
Samples of p7NC and apo-p7 were reacted with varying amounts of cupric chloride and resulting products separated by HPLC. The reactions were carried out using 44.3 μM protein (p7NC or apo-p7) in 0.1 M Tris-HCl, pH 7.4, for 6 minutes at room temperature with varying concentrations of CuCl2 to achieve the indicated ratios of reactants, in a final volume of 0.7 ml. Chromatography was carried out on the resulting products at pH 2 (0.05% trifluoroacetic acid) on μBondapak™ C-18 (3.9×300 mm) at 1.0 ml/minute using an acetonitrile gradient (0–17%, 20 ml; 17–20%, 60 ml; 20–60%, 10 ml). Elution positions of unreacted protein (p7NC or apo-p7) are indicated as apo-p7.
A two-fold excess of NOBA was reacted with p7NC, and the products were separated by HPLC (FIG. 10) as described above for Cu^+2 and p7NC. Elution positions for the reactants (NOBA and unreacted p7NC) and products, reacted p7NC, NOBA, HABA and AzoxyBA are indicated and an elution profile is included in FIG. 10. NOBA and AzoxyBA were supplied by Octamer, Inc. (Mill Valley, Calif.) and used as HPLC standards.
The disulfide reagent of choice (each available from the Aldrich Chemical Company (Milwaukee, Wis.)) was incubated for 10 minutes with purified p7NC protein (63 μM) at a ratio of 6 molecules of reagent to 1 molecule of NC protein (there are 6 cysteine thiols per NC protein). The formation of non-native protein conformations was monitored by HPLC as described above. […] Generally, the inactivation proceeds by formation of non-native, intra-protein disulfide links (designated “Disulfides”), but some of the reagents form adducts with the cysteine residues as well (designated “Adducts”). “Slow” reactions are those in which greater than 10% of the p7NC protein remained in its native form after the 10 minute incubation with reagent. “Very slow” reactions are those in which greater than 50% of the p7NC protein remained in its native form after the 10 minute incubation with reagent. “Fast” reactions result in complete transformation of the p7NC protein to non-native conformations during the 10 minute incubation period.
For `CCN1C(=O)C=CC1=O` [NEM, N-ethylmaleimide], the “reaction with purified p7NC (HPLC), in words” value is recorded as “form adducts with the p7NC protein”. As for `NC(=O)SCC(=O)NNc1ccccc1` [2-(Carbamoylthio)-Acetic Acid 2-Phenylhydrazide], the “reaction with purified p7NC (HPLC), in words” value is reported as “caused intra-chain disulfide formation”.

Staying with this experiment, now noted: 63 μM p7NC, 6 reagent : 1 protein, 10 minutes.
For `CC(=O)Nc1ccccc1SSc1ccccc1NC(C)=O` [2-Acetamidophenyl Disulfide], the “Protein (HPLC): reaction products” value was “Disulfides; also recorded: (Adducts)”. Turning to `Cc1cc(SSc2cc(C)c3ccccc3n2)nc2ccccc12` [4-Methyl-2-Quinolyl Disulfide], the “Protein (HPLC): reaction products” value is recorded as “Disulfides; also recorded: Adducts” and the “Protein (HPLC): reaction rate” value is recorded as “(slow) (“Slow” reactions are those in which greater than 10% of the p7NC protein remained in its native form after the 10 minute incubation with reagent)”.

Consider `CSSC(=O)c1ccccc1` [Benzoylmethyl Disulfide], for which the “Protein (HPLC): reaction products” value is reported as “Adducts”. As to `Cc1ccc(SSc2ccc([N+](=O)[O-])cc2)cc1` [4-Nitrophenyl p-Tolyl Disulfide], the “Protein (HPLC): reaction products” value is “Disulfides; also recorded: Adducts” and the “Protein (HPLC): reaction rate” value is on record as “(slow) (“Slow” reactions are those in which greater than 10% of the p7NC protein remained in its native form after the 10 minute incubation with reagent)”. For the compound `Clc1cc(Cl)c(SSc2cc(Cl)c(Cl)cc2Cl)cc1Cl` [2,4,5-Trichlorophenyl Disulfide], the “Protein (HPLC): reaction products” value is “Disulfides”. Regarding `Nc1c(SSc2ccc3ccccc3c2N)ccc2ccccc12` [2,2-Dithiobis(1-Naphtylamine)], the “Protein (HPLC): reaction products” value was “Disulfides; also recorded: Adducts” and the “Protein (HPLC): reaction rate” value is “(fast)”.

`CS(=O)(=O)c1ccc(SSc2ccc(S(C)(=O)=O)cc2[N+](=O)[O-])c([N+](=O)[O-])c1` [4-Methylsulfonyl-2-Nitrophenyl Disulfide]: the “Protein (HPLC): reaction products” value is recorded as “Disulfides”. With `Nc1ccccc1SSc1ccccc1N` [2-Aminophenyl Disulfide], the “Protein (HPLC): reaction products” value is recorded as “Disulfides; also recorded: Adducts” and the “Protein (HPLC): reaction rate” value is on record as “(slow) (“Slow” reactions are those in which greater than 10% of the p7NC protein remained in its native form after the 10 minute incubation with reagent)”. Consider `O=[N+]([O-])c1cccc(SSc2cccc([N+](=O)[O-])c2)c1` [3-Nitrophenyl Disulfide], for which the “Protein (HPLC): reaction products” value is recorded as “Disulfides”.

As to `c1cc(SSc2ccncc2)ccn1` [Aldrithiol-4], the “Protein (HPLC): reaction products” value is reported as “Disulfides”. `O=[N+]([O-])c1ccc(SSc2ccc([N+](=O)[O-])cc2)cc1` [4-Nitrophenyl Disulfide]: the “Protein (HPLC): reaction products” value is “Disulfides; also recorded: Adducts” and the “Protein (HPLC): reaction rate” value was “(slow) (“Slow” reactions are those in which greater than 10% of the p7NC protein remained in its native form after the 10 minute incubation with reagent)”. As to `O=[N+]([O-])c1ccc(Cl)c(SSc2cc([N+](=O)[O-])ccc2Cl)c1` [2-Chloro-5-Nitrophenyl Disulfide], the “Protein (HPLC): reaction products” value is reported as “Disulfides”.

Turning to `O=[N+]([O-])c1cc(SSc2ccc(Cl)c([N+](=O)[O-])c2)ccc1Cl` [4-Chloro-3-Nitrophenyl Disulfide], the “Protein (HPLC): reaction products” value is “Disulfides; also recorded: Adducts”.

As for `CCOC(=S)SSC(=S)OCC` [O,O-Diethyl Dithiobis-(Thioformate)], the “Protein (HPLC): reaction products” value is listed as “Disulfides; also recorded: Adducts”. With `CC(=O)Nc1ccc(SSc2ccc(NC(C)=O)cc2)cc1` [4-Acetamidophenyl Disulfide], the “Protein (HPLC): reaction products” value was “Disulfides” and the “Protein (HPLC): reaction rate” value is reported as “(slow) (“Slow” reactions are those in which greater than 10% of the p7NC protein remained in its native form after the 10 minute incubation with reagent)”.

For the compound `COc1cccc(SSc2cccc(OC)c2OC)c1OC` [2,3-Dimethoxyphenyl Disulfide], the “Protein (HPLC): reaction products” value is on record as “Adducts”. Take `c1ccc2nc(SSc3ccc4ccccc4n3)ccc2c1` [2-Quinolyl Disulfide]: the “Protein (HPLC): reaction products” value was “Disulfides; also recorded: Adducts” and the “Protein (HPLC): reaction rate” value is reported as “(slow) (“Slow” reactions are those in which greater than 10% of the p7NC protein remained in its native form after the 10 minute incubation with reagent)”. On to `CC(C)OC(=S)SSC(=S)OC(C)C` [Isopropylxanthic Disulfide], for which the “Protein (HPLC): reaction products” value is reported as “Disulfides”. For `Nc1cc(Cl)ccc1SSc1ccc(Cl)cc1N` [2-Amino-4-Chlorophenyl Disulfide], the “Protein (HPLC): reaction products” value is on record as “Disulfides; also recorded: Adducts” and the “Protein (HPLC): reaction rate” value is “(fast)”. Consider `O=C(O)c1cc(SSc2ccc([N+](=O)[O-])c(C(=O)O)c2)ccc1[N+](=O)[O-]` [5,5-Dithiobis(2-Nitrobenzoic Acid)], for which the “Protein (HPLC): reaction products” value is recorded as “Disulfides; also recorded: Adducts” and the “Protein (HPLC): reaction rate” value is listed as “(fast)”. The corresponding values for `Cc1ccc([S+]([O-])[S+]([O-])c2ccc(C)cc2)cc1` (stereo not drawn) [p-Tolyl Disulfoxide] are “Disulfides” and “(slow) (“Slow” reactions are those in which greater than 10% of the p7NC protein remained in its native form after the 10 minute incubation with reagent)”. `O[C@@H]1CSSC[C@H]1O` (relative stereo) [Trans-1,2-Dithiane-4,5-Diol]: the “Protein (HPLC): reaction products” value is listed as “Disulfides” and the “Protein (HPLC): reaction rate” value was “(slow) (“Slow” reactions are those in which greater than 10% of the p7NC protein remained in its native form after the 10 minute incubation with reagent)”. With `CCOC(=O)Nc1ccccc1SSc1ccccc1NC(=O)OCC` [2-(Ethoxycarboxamido)phenyl Disulfide], the “Protein (HPLC): reaction products” value is recorded as “Disulfides; also recorded: Adducts”.

As to `Cc1ccc(SSc2ccc([N+](=O)[O-])cc2[N+](=O)[O-])cc1` [2,4-Dinitrophenyl p-Tolyl Disulfide], the “Protein (HPLC): reaction products” value is given as “Disulfides; also recorded: Adducts” and the “Protein (HPLC): reaction rate” value is “(fast)”.

As for `O=C(O)CCSSCCC(=O)O` [3,3-Dithiodipropionic Acid], the “Protein (HPLC): reaction products” value is “Disulfides” and the “Protein (HPLC): reaction rate” value is given as “(slow) (“Slow” reactions are those in which greater than 10% of the p7NC protein remained in its native form after the 10 minute incubation with reagent)”. Take `CCN(CC)CCSSCCN(CC)CC` [2-(Diethylamino)ethyl Disulfide]: the “Protein (HPLC): reaction products” value is reported as “Disulfides”.

The same experiment, now with this note: after a 10 minute incubation.
In the case of `NC(=O)SCC(=O)NNc1ccccc1` [2-(Carbamoylthio)-Acetic Acid 2-Phenylhydrazide], the “p7NC species in non-native conformations” value is listed as “most”.
